“And” between values parts separate entries of the source, which are not always exact repeats. Equal values may be shown once.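 Exposure lasted 48 hours, with cells grown in 96-well plates and compounds tested at five concentrations. GI50 = concentration required for 50% inhibition of growth. At the TGI there is no net growth.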
How the values were obtained:
Test in all cases: DTP human tumour cell line panel, 48 h
[1] = tested on: ACHN renal
[2] = tested on: MALME-3M melanoma
[3] = tested on: EKVX NSCLC
[4] = tested on: NCI-H23 lung
[5] = tested on: K-562 leukemia
[6] = tested on: HT29 colon
[7] = tested on: NCI-H226 lung
[8] = tested on: SK-MEL-5 melanoma
[9] = tested on: HS 578T breast
[10] = tested on: NCI/ADR-RES ovarian

| Compound | TGI [1] | GI50 [2] | TGI [2] | GI50 [3] | TGI [4] | GI50 [5] | TGI [5] | GI50 [6] | TGI [6] | GI50 [7] | TGI [7] | GI50 [8] | TGI [8] | TGI [9] | TGI [10] | GI50 [1] | TGI [3] | GI50 [4] | GI50 [9] | GI50 [10] |
| --- | --- | --- | --- | --- | --- | --- | --- | --- | --- | --- | --- | --- | --- | --- | --- | --- | --- | --- | --- | --- |
| CC[C@@]1(O)C(=O)OCc2c1cc1n(c2=O)Cc2cc3cc(O)ccc3nc2-1 | 0.457 µM | 0.0567 µM | 1.45 µM and 0.877 µM | 0.107 µM and 0.903 µM | 0.109 µM and 0.0424 µM | 0.0419 µM and 0.0427 µM | 24.7 µM and > 46.5 µM | 0.16 µM and 0.167 µM | 18.4 µM | 0.0162 µM and 0.0165 µM | 0.0907 µM and 0.113 µM | 0.0247 µM and 0.0167 µM | 0.111 µM and 0.0959 µM | 8.52 µM | 0.225 µM and 0.109 µM | – | – | – | – | – |
| CCCCCCCCCCCCCCCC(=O)OCC1OC(OCCCC)[C@H](O[C@@H]2OC(C)C(OC(=O)CCC)C(O)C2O)C(O)C1O (stereo partly drawn) | 35.2 µM | 16.7 µM | 42.4 µM | 19.4 µM | 30.2 µM | 16.8 µM | 31.6 µM | 18.6 µM | 38.7 µM | 16.8 µM | 36.2 µM | 17.7 µM | 34.2 µM | 44.2 µM | 32.3 µM | 18.1 µM | 36.5 µM | 16.2 µM | 16.2 µM | 18 µM |
| CN1CCN(CCCCCOc2cc(O)c3c(=O)cc(-c4ccccc4)oc3c2)CC1 | 3.87 µM | 0.898 µM | 4.31 µM | 10.2 µM | – | 1.8 µM | 3.68 µM | 2.86 µM | 8.12 µM | 22 µM | 46.4 µM | 3.13 µM | 10.3 µM | 51.9 µM | 54.4 µM | 1.91 µM | > 100 µM | – | 18.1 µM | 14.9 µM |
| COc1cccc(N2C(=N)/C(=C3\Nc4ccccc4S3)CC2=O)c1 | > 100 µM | > 100 µM | > 100 µM | > 100 µM | > 100 µM | 3.92 µM | > 100 µM | 3.34 µM | > 100 µM | 38.3 µM | > 100 µM | 7.78 µM | > 100 µM | > 100 µM | > 100 µM | 4.93 µM | > 100 µM | 39.4 µM | 27.5 µM | 15.8 µM |
| C/C=C(/C)C(=O)OC1C=C(CO)C(=O)C(OC(=O)C2(C)OC2C)C1C(C)C (stereo not drawn) | 2.81 µM | 1.74 µM | 3.53 µM | 2.75 µM | 4.88 µM | 1.33 µM | 10.8 µM | 1.66 µM | 3.38 µM | 3.55 µM | 13.7 µM | 1.56 µM | 3.04 µM | 22.9 µM | 17.4 µM | 1.48 µM | 7.63 µM | 2.09 µM | 3.68 µM | 3.18 µM |
| CN1CCC(=C(c2ccc(Cl)cc2)c2ccccn2)CC1 | > 100 µM | 40.9 µM | > 100 µM | > 100 µM | > 100 µM | 74.7 µM | > 100 µM | 78.8 µM | > 100 µM | 90.2 µM | > 100 µM | 50.7 µM | > 100 µM | > 100 µM | > 100 µM | > 100 µM | > 100 µM | > 100 µM | 44.9 µM | > 100 µM |
| N#Cc1c(-c2ccccc2)nc(SCC(O)CN2CCOCC2)nc1N1CCOCC1 (stereo not drawn) | > 100 µM | 4.73 µM | > 100 µM | 7.52 µM | > 100 µM | 20 µM | > 100 µM | 15.9 µM | > 100 µM | 7.12 µM | > 100 µM | 2.99 µM | 47.9 µM | 63.2 µM | > 100 µM | 10.8 µM | > 100 µM | 37.5 µM | 6.22 µM | 39.5 µM |
| CN(C)C/C=C/C(=O)Nc1ccc(C(=O)Nc2cccc(Nc3ncc(Cl)c(-c4c[nH]c5ccccc45)n3)c2)cc1 | – | 0.0212 µM | 0.0873 µM | 0.03 µM | 0.133 µM | < 0.0148 µM | > 100 µM | 0.0385 µM | 0.678 µM | 0.106 µM | 0.369 µM | 0.035 µM | > 100 µM | 0.195 µM | > 100 µM | 0.0957 µM | 0.283 µM | 0.0257 µM | 0.0363 µM | 1.54 µM |
| Cc1cc2c3c(nc4ccccc42)C(=O)c2cccnc2-c3n1 | 1.45 µM | 0.426 µM | 1.39 µM | 0.707 µM | 0.466 µM | 0.109 µM | 0.345 µM | 0.663 µM | 2.03 µM | 0.942 µM | 3.26 µM | 0.0808 µM | 0.354 µM | > 21.9 µM | – | 0.0327 µM | 2.49 µM | 0.142 µM | 1.69 µM | 0.489 µM |
| CCN1C[C@@H](C)n2c(c(O)c3c(=O)n(Cc4ccc(F)c(Cl)c4)nc(C(=O)NC)c32)C1=O | 8.87 µM | 2.75 µM | 8.07 µM | – | 8.62 µM | 3.39 µM | > 100 µM | 3.9 µM | 15.5 µM | 3.31 µM | > 100 µM | 1.98 µM | 4.49 µM | 7.42 µM | 7.79 µM | 2.85 µM | – | 2.7 µM | 2.48 µM | 1.62 µM |
| CCCCNC(=O)CC1=C(C)/C(=C/c2[nH]c(-c3ccc[nH]3)cc2OC)N=C1C | 5.64 µM | 2.28 µM | 5.43 µM | 2.29 µM | 21 µM | – | – | 2.18 µM | 11.1 µM | 2.74 µM | 8.77 µM | – | – | 9.11 µM | 9.89 µM | 2.26 µM | 15.5 µM | 3.03 µM | 2.66 µM | 3.02 µM |
| N#Cc1ncc(-c2ccc(C(F)(F)F)cc2)c(NC2CCCCCC2)n1 | > 100 µM | > 100 µM | > 100 µM | – | > 100 µM | 9.03 µM | > 100 µM | 9.35 µM | > 100 µM | 21.8 µM | > 100 µM | 33.5 µM | > 100 µM | > 100 µM | > 100 µM | 24 µM | – | 6.48 µM | 22.4 µM | 18.1 µM |
| CN1C(=O)[C@@H](CC2CCCC2)N(C2CCCC2)c2nc(Nc3cc(Cl)c(O)c(Cl)c3)ncc21 | > 100 µM | 20.7 µM | 75.2 µM | 22.4 µM | > 100 µM | 14.6 µM | > 100 µM | 26.7 µM | 88.3 µM | 25 µM | > 100 µM | 17.4 µM | 32.9 µM | > 100 µM | > 100 µM | 18.7 µM | > 100 µM | 31.3 µM | 21.6 µM | 20.7 µM |
| COc1ccc(-c2cc(-c3ccc(Cl)cc3)nc(SCCCC(=O)NO)n2)cc1OC | 2.04 µM | 1.6 µM | 5.64 µM | 1.04 µM | 5.53 µM | – | – | 1.46 µM | > 26 µM | 1.2 µM | 5.43 µM | 1.03 µM | 2.4 µM | 11.1 µM | 2.54 µM | 0.364 µM | 8.89 µM | 1.29 µM | 2.31 µM | 0.368 µM |
| Cc1c(Br)c(Br)c2c3c1nc(N1CCNCC1)n3CCC2 | 2.71 µM | 1.85 µM | 3.41 µM | 1.9 µM | 4.22 µM | 2.14 µM | 5.49 µM | 1.51 µM | 3.2 µM | 1.95 µM | 5.31 µM | 1.89 µM | 3.42 µM | 6.5 µM | 3.82 µM | 1.39 µM | 4.32 µM | 2.01 µM | 2.45 µM | 1.8 µM |
| CN(C)Cc1ccc(O)c(CN(C)C)n1 | > 100 µM | – | > 100 µM | – | > 100 µM | – | > 100 µM | – | > 100 µM | – | > 100 µM | – | > 100 µM | > 100 µM | > 100 µM | – | > 100 µM | – | – | – |
| COC(=O)C1C(=O)C(C(=O)OC)C2CCC1N2C (stereo not drawn) | > 100 µM | – | 51.9 µM | – | – | – | > 100 µM | – | > 100 µM | – | > 94.9 µM | – | > 100 µM | > 100 µM | > 100 µM | – | > 100 µM | – | – | – |
| O=C1NC(=NCCc2ccccc2F)S/C1=C\c1ccc2ncccc2c1 | > 25 µM | 11.4 µM | > 25 µM | – | > 25 µM | 2.78 µM | > 25 µM | 5.87 µM | > 25 µM | 7.59 µM | > 25 µM | 5.85 µM | 19.4 µM | > 23.4 µM | > 25 µM | 9.06 µM | – | 6.12 µM | 7.05 µM | 9.2 µM |
| CC(=O)NC(CCc1ccc(Cl)c(Cl)c1)c1cccc(O)c(=O)c1 (stereo not drawn) | 31.6 µM | 1.45 µM | 7.12 µM | – | 18.9 µM | 0.653 µM | 29.1 µM | 0.784 µM | 22 µM | 0.633 µM | 14.2 µM | 0.234 µM | 1.14 µM | 32.5 µM | 4.92 µM | 0.286 µM | – | 1.11 µM | 2.61 µM | 0.338 µM |
| COc1cc(C(=O)/C=C/c2cccnc2Nc2ccc(Cl)cc2)cc(OC)c1OC | 3.18 µM | 1.91 µM | 3.65 µM | 1.61 µM | 3.24 µM | – | – | 1.43 µM | 3.25 µM | 1.16 µM | 2.45 µM | 1.5 µM | 2.84 µM | 59.2 µM | 4.4 µM | 1.77 µM | 3.16 µM | 1.58 µM | 3.08 µM | 1.64 µM |
| NC(=O)NC(=O)Nc1ccc(Br)cc1 | > 30.3 µM | – | > 27.9 µM | – | > 33.3 µM | – | > 100 µM | – | – | – | > 39.1 µM | – | > 18.6 µM | > 100 µM | > 63.5 µM | – | 48.4 µM | – | – | – |

Reference: PubChem BioAssay (NCI)
